As usually defined, the melting point is the temperature, or range, at which the solid turns liquid.

Molecules are shown by their SMILES.

`COc1ccc(C=Cc2ccc(O)c(OC)c2)cc1`: the melting point was in the range of 163 to 166 °C. For `CON1CCC2(CC1)C(O)=C(c1c(C)cc(C)cc1C)C(=O)N2OC1CCCO1` (stereo not drawn) the value was 144 to 146 °C; for `CNc1cc(F)ccc1-c1c(C#N)n[nH]c1-c1ccc(S(C)(=O)=O)cc1`, 192 to 193 °C.

The compound `OC(CNC1CC1)c1cccc(Cl)c1` (stereo not drawn) displayed a melting point of 71.3 to 73.2 °C. The figure for `CC1(C)c2cc(C#N)ccc2OC1N1CCOCC1` (stereo not drawn) is 105 to 107 °C; for `CC(=O)NC[C@H]1CN(c2ccc(N3CCC(CC#N)CC3)cc2)C(=O)O1` it is 150 to 152 °C. In the case of `Cc1c(C(=O)c2cccc(C(F)(F)F)c2F)c2ccc(Cl)c(Cl)c2n1CCCNS(C)(=O)=O`, the melting point turned out to be 181 °C. For the compound `C=CCCCc1cc(-c2ccc(F)cc2)nc(C)n1`, the melting point was 44.5 to 45.5 °C. For `COc1ccc2c(c1)CCC1CCN(C)C(=O)C(CC(C)=O)=C21` (stereo not drawn) the value was 190 to 192 °C; for `CN(Cc1cccc(O)c1)c1cnc(-c2ccccc2)c(-c2ccccc2)n1`, 156 to 157 °C; for `N#Cc1cn(C(CO)CCc2ccccc2)cn1` (stereo not drawn), 111 to 115 °C.

The compound `CC(C)NC(=NC#N)Nc1ccc(C2=NNC(=O)CC2C)cc1` (stereo not drawn) showed a melting point of 255 °C. Regarding `COc1nc2ccccc2cc1NC(=O)N1CCN(c2cccc3ccccc23)CC1`, the melting point lay in the range of 158 to 160 °C. For `CC(C)(C)c1cc(C(=O)OCCc2ccc([N+](=O)[O-])cc2)cc(C(C)(C)C)c1O` the value was 124 °C; for `Oc1nc2cc(Cl)ccc2n2cnnc12`, greater than 300 °C. The figure for `CCOC(=O)C1=C(/C=C/N(C)C)C(CC)(C(=O)N(CC)CC)OC1=O` (stereo not drawn) is 105 °C. The compound `COc1c(C=Cc2ccccc2)cc(C(C)(C)C)cc1C=Cc1ccccc1` returned a melting point of 129 to 130 °C.

Regarding `O=C(c1ccccc1)c1cc2c(s1)SCCc1cc(=O)n(-c3ccc(Cl)cc3)nc1-2`, the melting point lay in the range of 180 to 182 °C.

Take `Clc1ccc(N2CC=C(COc3ccc(C4=NCCO4)cc3)CC2)nn1`: the melting point is 176 °C. The figure for `COc1c(C)cc(C(=O)c2ccc(Cl)cc2)c(OC)c1OC` is 99.5 to 100 °C. The figure for `COc1ccc(Cn2cnc3c(-c4ccco4)nc(C#N)nc32)cc1` is 205 to 207 °C; for `O=C(O)CC(CO)C(=O)c1ccc(Cl)c([N+](=O)[O-])c1` (stereo not drawn) it is 210 to 213 °C. For `CC1(C)CCC(C)(C)c2cc(C(=O)Nc3ccc(F)cc3)ccc21` the value was 163 to 165 °C. With `COC(=O)CNC(=O)c1ccc2ccccc2c1`, the melting point worked out at 118 °C. The figure for `COc1cc(F)ccc1Nc1ccc2c(c1)OCc1cc([N+](=O)[O-])ccc1C2=O` is 222 °C; for `CSc1ncnc2c(N(C)C)nc(Cl)nc12` it is 166 to 168 °C; for `CC(=O)c1c[nH]c2c3c(ccc12)OCC3` it is 233 to 234 °C. The figure for `Nc1nc(-c2ccc(CCN3CCN(c4cccc5cc(Cl)ccc45)CC3)cc2)cs1` is 210 to 215 °C. For `CCc1cc(NCc2ccc(-c3ccccc3C#N)cc2)n2ncc(Cl)c2n1` the value was 152 to 154 °C; for `O=c1oc(-c2c(F)cccc2Cl)nn1-c1ccccc1Cl`, 92 to 95 °C; for `COc1cc(C(O)C#N)ccc1O` (stereo not drawn), 80 to 81 °C. In the case of `CCOC(=O)CC1CN(c2c(C)cccc2C)C(=N)N1c1c(C)cccc1C` (stereo not drawn), the melting point was 142 to 144 °C. `O=c1[nH]c(Cc2ccccc2)ccc1CCl` displayed a melting point of 142 to 145 °C. For `CC(C)c1cccc(C(C)C)c1NC(=O)N(Cc1ccc(N(C)C)cc1)c1ccc(C(F)(F)F)cc1` the value was 129 to 130 °C. For `CN1c2ccncc2NCc2cccn21` the value was 135 to 140 °C; for `CCCCOc1ccc([N+](=O)[O-])c(C(=O)O)c1`, 82 to 84 °C. The compound `CC1C(=O)N(c2ccccc2O)Sc2ccccc21` (stereo not drawn) yielded a melting point of 162 to 164 °C.

As to `CCOc1c(C(=O)c2cccs2)cnc2[nH]ncc12`, the melting point was in the range of 202 to 205 °C. For `O=C(NCC12CC3CC(CC(C3)C1)C2)c1cc(F)ccc1Br` the value was 143 to 144 °C; for `CC1(C)CC(=O)C(S(=O)CC2CCCCC2)=C(O)C1` (stereo not drawn), 77 to 79.5 °C; for `COc1cc2c(c(OC)c1)C1CCC3(C)C(O)CCC3C1CC2` (stereo not drawn), 53 to 55 °C. The figure for `O=C(Nc1ccc(-c2cnc(-c3ccc(NC(=O)C4CCCCCC4)cc3)[nH]2)cc1)c1cccnc1` is 256 to 258 °C; for `CCc1cc(Nc2ccc(Sc3ccncc3)cc2)nc(N)n1` it is 181 to 186 °C.

Turning to `CN(C)C(=O)CSc1nc2ccccc2cc1-c1ccccc1`, the melting point lay in the range of 86 to 89 °C.

`CCCN1CC(CO)CC2c3cccc4[nH]cc(c34)CC21` (stereo not drawn) registered a melting point of 166 to 168 °C. In turn, `N#Cc1cc2c3c(cccc3c1N1CCCC1)C(=O)N(O)C2=O` returned a melting point of 247 to 248 °C. The figure for `CCCCc1nc(=O)n2nc(-c3ccccc3)cc2[nH]1` is 234 °C. The figure for `Cc1cc(C(F)(F)F)n2nc(SCc3ccccc3)nc2n1` is 83.5 to 84.5 °C. The figure for `NC(=O)COC(=O)NCCC[C@H]1OC[C@H](c2ccc(Cl)c3ccccc32)CO1` is 176 to 178 °C.

The compound `Cn1c(=O)nc(-c2ccccc2F)c2c3c(sc21)CCCC3` gave a melting point of 221 to 222 °C. On to `CCCCC(=O)Nc1cccc(NC(=O)C=C(C)OC)c1`, for which the melting point was 115 °C. The figure for `COc1cc2ncc(C#N)c(Nc3ccc(F)c(Cl)c3)c2cc1NC(=O)C=CCN(C)OC` is 210 to 217 °C; for `CC(C)n1nc(-c2cc(C(C)(C)C)c(O)c(C(C)(C)C)c2)c2cccnc21` it is 147 °C; for `O=C(O[C@@H]1CC[C@H]1Cl)c1ccccc1` (relative stereo) it is 20 °C. For `CC(=O)Oc1ccc2c(c1)C1C(OC(=O)C(C)(C)C)CC3(C)C(OC(=O)C(C)(C)C)CCC3C1CC2` (stereo not drawn) the value was 143 to 146 °C; for `CCCc1c(OCCCOc2cccc(NC(=O)C(=O)OCC)c2)ccc(C(C)=O)c1O`, 52 to 57 °C; for `CCOC(=O)c1cn(Cc2ccccc2)nc1OCc1ccc(OCc2nc(-c3ccco3)oc2C)c(-c2ccccc2)c1`, 134 to 135 °C. For `O=c1c2c(Cc3cccc(C(F)(F)F)c3)n[nH]c2c2cccnc2n1-c1cccc(OC(F)(F)F)c1` the value was 206 to 209 °C. As for `COC(CNc1nc(-c2ccccc2)c2cc(Cl)ccc2n1)OC`, the melting point is 122 to 123 °C. With `Cc1c(C)c2c(c(C)c1NC(=O)c1ccccc1)C(c1ccc(C(C)C)cc1)C(C)(C)O2` (stereo not drawn), the melting point is 218 to 220 °C.

`O=[N+]([O-])c1ccc(Sc2ccccc2)c(CO)c1` yielded a melting point of 104 to 107 °C. For `OC1Cn2ccnc2C(=C2CCN(CCc3ccc(OCc4ccc5ccccc5n4)cc3)CC2)c2ccsc21` (stereo not drawn) the value was 242 °C.

Compound `CC(C)[C@H](NC(=O)CN)c1nc2c(C(F)(F)F)cccc2c(O)c1C(=O)Nc1nccs1` showed a melting point of 230 °C.

The values are drawn from a melting point compilation (Tetko et al.; mined from patent text by program, amines drawn as free bases though some values may be those of a salt).
